# Experimental data from US20080114055A1, “Thioxanthone Compounds to Reverse Weight Loss” (ZOLTAN LABORATORIES LLC, priority 2006, published 2008).
# Key:
# [1] = test system: HT-168 human melanoma tumor; assay: HT-168 human melanoma model: body, total and tumor weight; assay type: in vivo, mice; details: for Body weight: total minus tumor weight
# Text: Tumors were developed in a homozygous line of C.B.-171 cr scid/scid adult female mice kept at specified pathogen free (SPF) hygienic levels. Suspensions of HL-60 human leukemia cells (about 1,500,000 cells), or approximately 0.1 cm^3 volume of tumor tissue derived from HT-168 human melanoma, PC-3 human prostate adenocarcinoma, or T47D human breast carcinoma were implanted subcutaneously to develop the tumors. After 12-18 days when the tumor-bearing mice were first treated, the size of the tumors was in the 0.2-0.4 cm^3 range. CCcompound1 was dissolved in physiological (0.9%) saline (NaCl) and applied subcutaneously in 50 μl volume. Tumor volume was determined by calipers in three dimensions; this technique is well known to one having ordinary skill in the art. Tumor volume was calculated according to the generally accepted formula: V=a^2×b×π/6, where “a” and “b” mean the shortest and longest diameter, respectively, of the measured tumor. Tumor weight was calculated from tumor volume using a 0.7 (tumor weight) : 1 (tumor volume) ratio. Total weight and tumor volume/weight was measured regularly (at least every second day). In all tumor experiments, each treatment group consisted of five animals. Accordingly, all data are the average of five independent determinations (one determination for each animal). HT-168 human tumors were developed in mice as described above. Treatments with CCcompound1 were started on day 17 after tumor implantation and conducted for the first five days and then for another five days with two treatment-free days inserted between the two series of treatments. The results, shown in TABLE 3, indicate that between day 17 and 30 after tumor implantation, the melanoma tumor caused a 2.7-g loss in body weight.
# [2] = test system: PC-3 human prostate tumor; assay: PC-3 human prostate cancer model: body, total and tumor weight; assay type: in vivo, mice; details: for Body weight: total minus tumor weight
# Text: Tumors were developed in a homozygous line of C.B.-171 cr scid/scid adult female mice kept at specified pathogen free (SPF) hygienic levels. Suspensions of HL-60 human leukemia cells (about 1,500,000 cells), or approximately 0.1 cm^3 volume of tumor tissue derived from HT-168 human melanoma, PC-3 human prostate adenocarcinoma, or T47D human breast carcinoma were implanted subcutaneously to develop the tumors. After 12-18 days when the tumor-bearing mice were first treated, the size of the tumors was in the 0.2-0.4 cm^3 range. CCcompound1 was dissolved in physiological (0.9%) saline (NaCl) and applied subcutaneously in 50 μl volume. Tumor volume was determined by calipers in three dimensions; this technique is well known to one having ordinary skill in the art. Tumor volume was calculated according to the generally accepted formula: V=a^2×b×π/6, where “a” and “b” mean the shortest and longest diameter, respectively, of the measured tumor. Tumor weight was calculated from tumor volume using a 0.7 (tumor weight) : 1 (tumor volume) ratio. Total weight and tumor volume/weight was measured regularly (at least every second day). In all tumor experiments, each treatment group consisted of five animals. Accordingly, all data are the average of five independent determinations (one determination for each animal). PC-3 human tumors were developed in mice as described above. Treatments with CCcompound1 were started on day 12 after tumor implantation and conducted for five days and then for another three days with two treatment-free days inserted between the two series of treatments. The results, shown in TABLE 4, indicate that between day 12 and 21 after tumor implantation, the prostate tumor caused about 5.7-g loss in body weight which corresponds to about 22% reduction.
# [3] = 1.0 mg/kg s.c., day 17 (treatment start)
# [4] = 2.0 mg/kg s.c., day 17 (treatment start)
# [5] = 4.0 mg/kg s.c., day 17 (treatment start)
# [6] = 1.0 mg/kg s.c., day 12 (treatment start)
# [7] = 2.0 mg/kg s.c., day 12 (treatment start)
# [8] = 4.0 mg/kg s.c., day 12 (treatment start)
smiles,measurement,setting,value
"Cc1c(OCC(O)C[N+](C)(C)C)cc2c(=O)c3ccccc3sc2c1C.[Cl-] (stereo not drawn) [CCcompound1, [3-(3,4-Dimethyl-9-oxo-9H-thioxanthen-2-yloxy)-2-hydroxypropyl]trimethyl-ammonium chloride]",Tumor weight,[1]; [3],0.2 g
same,Body weight,[1]; [3],23.8 g
same,Total weight,"[1]; 1.0 mg/kg s.c., day 17 after tumor transplantation (treatment start)",24.0 g
same,Tumor weight,"[1]; 1.0 mg/kg s.c., day 30",2.1 g
same,Body weight,"[1]; 1.0 mg/kg s.c., day 30",25.5 g
same,Total weight,"[1]; 1.0 mg/kg s.c., day 30 after tumor transplantation",27.6 g
same,Total weight,[1]; [4],23.1 g
same,Tumor weight,[1]; [4],0.2 g
same,Body weight,[1]; [4],22.9 g
same,Total weight,"[1]; 2.0 mg/kg s.c., day 30",25.8 g
same,Tumor weight,"[1]; 2.0 mg/kg s.c., day 30",1.8 g
same,Body weight,"[1]; 2.0 mg/kg s.c., day 30",24.0 g
same,Total weight,[1]; [5],23.8 g
same,Tumor weight,[1]; [5],0.2 g
same,Body weight,[1]; [5],23.6 g
same,Total weight,"[1]; 4.0 mg/kg s.c., day 30",29.6 g
same,Tumor weight,"[1]; 4.0 mg/kg s.c., day 30",1.2 g
same,Body weight,"[1]; 4.0 mg/kg s.c., day 30",28.4 g
same,Effect on body weight loss,"[1]; 1-mg/kg, between day 17 and 30",sufficient to reverse body weight loss
same,Body weight gain,"[1]; 4-mg/kg, between day 17 and 30",~5 g
same,Reduction of tumor weight,"[1]; 4-mg/kg, day 30",more than 50%
same,Tumor weight,[2]; [6],0.4 g
same,Body weight,[2]; [6],25.9 g
same,Total weight,"[2]; 1.0 mg/kg s.c., day 12 after tumor transplantation (treatment start)",26.3 g
same,Tumor weight,"[2]; 1.0 mg/kg s.c., day 21",2.2 g
same,Body weight,"[2]; 1.0 mg/kg s.c., day 21",23.1 g
same,Total weight,"[2]; 1.0 mg/kg s.c., day 21 after tumor transplantation",25.3 g
same,Total weight,[2]; [7],26.1 g
same,Tumor weight,[2]; [7],0.4 g
same,Body weight,[2]; [7],25.7 g
same,Total weight,"[2]; 2.0 mg/kg s.c., day 21",28.4 g
same,Tumor weight,"[2]; 2.0 mg/kg s.c., day 21",1.9 g
same,Body weight,"[2]; 2.0 mg/kg s.c., day 21",26.5 g
same,Total weight,[2]; [8],26.9 g
same,Tumor weight,[2]; [8],0.2 g
same,Body weight,[2]; [8],26.7 g
same,Total weight,"[2]; 4.0 mg/kg s.c., day 21",32.4 g
same,Tumor weight,"[2]; 4.0 mg/kg s.c., day 21",1.4 g
same,Body weight,"[2]; 4.0 mg/kg s.c., day 21",31.0 g
same,Effect on body weight loss,"[2]; 1-mg/kg, between day 12 and 21",only partially prevented body weight loss
same,Body weight gain,"[2]; 4-mg/kg, between day 12 and 21",4.3 g
same,Reduction of tumor weight,"[2]; 4-mg/kg, day 21",about 48%
